Experimental data published in PubChem BioAssay AID2060899 (Molecular Pharmacology Branch, DTP, NCI, 2025).
pIC50: −log10 of the molar value.

System: 565726-208-R1-J5-PDC complex spheroids, growth inhibition
Assay: Anticancer human tumor 565726-208-R1-J5-PDC patient-derived pancreatic adenocarcinoma cell line growth inhibition [RAS]
Details: for pIC50: curve of first compound; for viability, T/C: stronger effect = lower value
Method in brief: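 Multi-cell-type spheroids: tumor cells plus HUVEC endothelial cells and mesenchymal stem cells. RAS-pathway inhibitors were combined with targeted agents, each dosed in half-log steps down from clinical Cmax, or from 10 microM when Cmax was unknown.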
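Also: spheroids exposed to compounds for seven days before readout.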
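For viability, T/C in this document: 100% = DMSO vehicle control viability.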

With `CC(Nc1ccc2c(c1)OCCn1cc(N3C(=O)OCC3C(F)F)nc1-2)C(N)=O` (configuration not stated) + C=CC(=O)N1CCN(c2nc(OCC3CCCN3C)nc3c(F)c(-c4nc(N)cc(C)c4C(F)(F)F)c(Cl)cc23)C(C)C1 the pIC50 (second compound 0.00316 µM) was under 5.00, the pIC50 (second compound 0.01 µM) was under 5.00 and the pIC50 (second compound 0.0316 µM) was under 5.00. For the same compound, the pIC50 (second compound 0.1 µM) was under 5.00, the pIC50 (second compound 0.316 µM) was under 5.00 and the pIC50 (second compound 1 µM) was under 5.00. It also gave a viability, T/C (second compound 0.00316 µM, first compound 0.0316 µM) of 87.9%, a viability, T/C (second compound 0.00316 µM, first compound 0.1 µM) of 124% and a viability, T/C (second compound 0.00316 µM, first compound 0.316 µM) of 93.7%. The viability, T/C (second compound 0.00316 µM, first compound 1 µM) was 67.5%, the viability, T/C (second compound 0.00316 µM, first compound 3.16 µM) was 92.8% and the viability, T/C (second compound 0.00316 µM, first compound 10 µM) was 86.4%. It also gave a viability, T/C (second compound 0.01 µM, first compound 0.0316 µM) of 95.4%, a viability, T/C (second compound 0.01 µM, first compound 0.1 µM) of 139% and a viability, T/C (second compound 0.01 µM, first compound 0.316 µM) of 79.8%. For the same compound, the viability, T/C (second compound 0.01 µM, first compound 1 µM) was 66%, the viability, T/C (second compound 0.01 µM, first compound 3.16 µM) was 100% and the viability, T/C (second compound 0.01 µM, first compound 10 µM) was 89%. It also gave a viability, T/C (second compound 0.0316 µM, first compound 0.0316 µM) of 121%, a viability, T/C (second compound 0.0316 µM, first compound 0.1 µM) of 128% and a viability, T/C (second compound 0.0316 µM, first compound 0.316 µM) of 78.6%. For the same compound, the viability, T/C (second compound 0.0316 µM, first compound 1 µM) was 67.9%, the viability, T/C (second compound 0.0316 µM, first compound 3.16 µM) was 104% and the viability, T/C (second compound 0.0316 µM, first compound 10 µM) was 96.2%. For the same compound, the viability, T/C (second compound 0.1 µM, first compound 0.0316 µM) was 149%, the viability, T/C (second compound 0.1 µM, first compound 0.1 µM) was 130% and the viability, T/C (second compound 0.1 µM, first compound 0.316 µM) was 69.4%. The viability, T/C (second compound 0.1 µM, first compound 1 µM) was 66.8%, the viability, T/C (second compound 0.1 µM, first compound 3.16 µM) was 62.7% and the viability, T/C (second compound 0.1 µM, first compound 10 µM) was 85.1%. For the same compound, the viability, T/C (second compound 0.316 µM, first compound 0.0316 µM) was 141%, the viability, T/C (second compound 0.316 µM, first compound 0.1 µM) was 139% and the viability, T/C (second compound 0.316 µM, first compound 0.316 µM) was 86.3%. The viability, T/C (second compound 0.316 µM, first compound 1 µM) was 79.8%, the viability, T/C (second compound 0.316 µM, first compound 3.16 µM) was 66.3% and the viability, T/C (second compound 0.316 µM, first compound 10 µM) was 102%. The viability, T/C (second compound 1 µM, first compound 0.0316 µM) was 126%, the viability, T/C (second compound 1 µM, first compound 0.1 µM) was 147% and the viability, T/C (second compound 1 µM, first compound 0.316 µM) was 90.2%. It also gave a viability, T/C (second compound 1 µM, first compound 1 µM) of 64.9%, a viability, T/C (second compound 1 µM, first compound 3.16 µM) of 85.3% and a viability, T/C (second compound 1 µM, first compound 10 µM) of 89.8%.
